Laboratory results taken from US20260115250A1, “METHODS OF TREATING AGE-RELATED MACULAR DEGENERATION” (Character Biosciences, Inc., priority 2022, published 2026).
Peptide text beside a SMILES is read from it.

How the values were obtained:
ARPE-19 cells [1] = experiment: ARPE-19 GAG-dependent cholesterol import (with or without heparin); type: cell-based, human; conditions: ARPE-19, 10 μM peptide
Protocol: ARPE-19 cells were seeded on 96-well plates at 25,000 cells per well and grown to confluence. A 2× solution of 500 μM DMPC and 50 μM BODIPY-Cholesterol with or without 100 µg/mL heparin was prepared in serum free DMEM: F12. Peptides were diluted to 20 μM in serum free DMEM: F12 (a 2× solution). Peptides were added to lipid solution in equal parts (60 μL each) and incubated for 1 hour at 37° C. ARPE-19 cells were serum starved in serum free DMEM: F12 for 1 hour at 37° C. Peptide: Lipid complexes (100 μL total volume per well) were transferred to ARPE-19 cells for 2 hours at 37° C. Cells were washed, fixed, and intracellular fluorescence was read on Promega GloMax at 475 nm excitation, 500-550 emission. Fluorescence values were background corrected from no treatment conditions. Data are presented ±SD for 2 runs.

HepG2 cells = experiment: HepG2 cholesterol import (BODIPY-Cholesterol); type: cell-based; conditions: HepG2, peptide:lipid complexes from 30 μM diluted 1:3
Protocol: HepG2 cells were seeded on a 96-well plate at 10,000 cells per well and grown to confluence. A solution of 500 μM DMPC and 50 μM BODIPY-Cholesterol was prepared in serum free EMEM. Peptides were diluted to 20 μM in serum free EMEM (a 2× solution). Peptides were added to lipid solution in equal parts (60 μL each) to create final 1× concentration and incubated for 1 hour at 37° C. HepG2 cells were serum starved in serum-free EMEM for 1 hour at 37° C. Peptide: Lipid complexes (100 μL total volume per well) were transferred to HepG2 cells for 2 hours at 37° C. Cells were washed, fixed, and intracellular fluorescence was read on Promega GloMax at 475 nm excitation, 500-550 emission. Fluorescence values were background corrected from no treatment conditions. Data are presented as mean+SD for two runs.
HepG2 cells were seeded on 96-well plates at 10,000 cells per well and grown to confluence. Peptide: Lipid complexes were created by preparing a solution of serum-free EMEM containing 30 μM peptide, 750 μM DMPC, and 75 μM BODIPY-Cholesterol. Peptide: Lipid complexes were serially diluted 1:3 for 5 concentrations, and incubated for 1 hour at 37° C. […] Cells were washed, fixed, and intracellular fluorescence was read on Promega GloMax at 475 nm excitation, 500-550 emission. Fluorescence values were background corrected from no treatment conditions. […]

[2] = peptide binding to non-oxidized and oxidized lipids (SPR); conditions: immobilized peptide; RU normalized to DMPC
Protocol: FIGS. 25A-25O show peptide binding activity to non-oxidized and oxidized lipids via SPR for indicated peptides. Peptides were reconstituted to 50 μg/mL in 10 mM acetate buffer, pH 4.5 and immobilized to ˜200 RU on a CM5 chip via amine coupling. Non-oxidized lipids (DMPC & POPC) and oxidized lipids (POVPC & KOdiA-PC) were diluted to 100 µM in HBS-EP running buffer and exposed to the chip for binding (n=3) at a flow rate of […] for 120 seconds. The surface was regenerated with 20% EtOH. T-001 served as a positive control and T-031 served as a negative control on each chip. For each peptide, the RU response for all lipids was normalized to the DMPC RU values.

ARPE-19 cells [3] = experiment: ARPE-19 cholesterol import (BODIPY-Cholesterol); type: cell-based, human; conditions: ARPE-19, 0.37-30 μM peptide, FIG. 15
Protocol: FIG. 12 and FIGS. 14A-14B illustrate the results of ARPE-19 cholesterol import testing. ARPE-19 cells were seeded on 96-well plates at 25,000 cells per well and grown to confluence. A 2× solution of 500 μM DMPC and 50 μM BODIPY-Cholesterol were prepared in serum free DMEM: F12. Peptides were diluted to 20 μM in serum free DMEM: F12 (a 2× solution). Peptides were added to lipid solution in equal parts (60 μL each) and were incubated for 1 hour at 37° C. ARPE-19 cells were serum starved in serum free DMEM: F12 for 1 hour at 37° C. Peptide: Lipid complexes (100 μL total volume per well) were transferred to ARPE-19 cells for 2 hours at 37° C. Cells were washed, fixed, and intracellular fluorescence was read on Promega GloMax at 475 nm excitation, 500-550 emission. Fluorescence values were background corrected from no treatment conditions. Data are presented as mean+SD for two runs.
FIG. 15 illustrates ARPE-19 cholesterol import titration curves for a subset of the peptides. ARPE-19 cells were seeded on 96-well plates at 25,000 cells per well and grown to confluence. A 2× solution of 500 μM DMPC and 50 μM BODIPY-Cholesterol was prepared in serum free DMEM: F12. Peptides were diluted to 0.74-60 μM in serum free DMEM: F12 (2× solutions). Peptides were added to lipid solution in equal parts (60 μL each) to create final peptide concentrations of 0.37-30 µM and incubated for 1 hour at 37° C. ARPE-19 cells were serum starved in serum free DMEM: F12 for 1 hour at 37° C. Peptide: Lipid complexes (100 μL total volume per well) were transferred to ARPE-19 cells for 2 hours at 37° C. Cells were washed, fixed, and intracellular fluorescence was read on Promega GloMax at 475 nm excitation, 500-550 emission. Fluorescence values were background corrected from no treatment conditions. […]
ARPE-19 cells were seeded on 96-well plates at 25,000 cells per well and grown to confluence. […] Cells were washed, fixed, and intracellular fluorescence was read on Promega GloMax at 475 nm excitation, 500-550 emission. Fluorescence values were background corrected from no treatment conditions. […]

ARPE-19 cells [4] = experiment: ARPE-19 cell lysis (Sytox Green); type: cell-based, human; conditions: 3.16-100 μM peptide, 2 h
Protocol: These figures illustrate ARPE-19 cell lysis. ARPE-19 cells were grown in 96-well plates to 75-85% confluence. Peptides at 10 mM were diluted in serum-free DMEM:F12 media into a 20 μM working solution (a 2× solution). Sytox Green was prepared in serum-free DMEM:F12 at a 1 μM working solution (a 2× solution). Equivalent volumes of the peptide and Sytox Green solutions were added to empty 96-well plates and mixed gently. Final peptide concentration was 10 μM. ARPE-19 cells (˜80% confluent in 96-well plates) were washed with DPBS and then incubated in 100 μL of peptide/Sytox Green mixture for 2 h at 37° C. Cells were fixed in 4% paraformaldehyde solution in DPBS and then incubated in 10 μM Hoechst solution for 10 min, washed, and imaged on a Yokogawa CQ1 high-content imager. CellPathfinder software was used to count live/dead cells in 4 fields of view at 20× magnification. Percent (%) lysis was calculated by dividing the number of Sytox Green+ nuclei by the total number of Hoechst+ nuclei.
ARPE-19 cells were grown in 96-well plates to 75-85% confluence. Peptides at 10 mM were diluted in serum-free DMEM: F12 media to solutions between […]. Sytox Green was prepared in serum-free DMEM: F12 media at a 1 μM working solution. Equivalent volumes of the peptide and Sytox Green solutions were added to empty 96-well plates and mixed gently. Final peptide concentration was 3.16-100 μM. ARPE-19 cells (˜80% confluent in 96-well plates) were washed with DPBS and then incubated in 100 μL of peptide/Sytox Green mixture for 2 h at 37° C. Cells were fixed in 4% paraformaldehyde solution in DPBS and then incubated in 10 μM Hoechst solution for 10 min, washed, and imaged on a Yokogawa CQ1 high-content imager. CellPathfinder software was used to count live/dead cells in 4 fields of view at 20× magnification. Percent (%) lysis was calculated by dividing the number of Sytox Green+ nuclei by the total number of Hoechst+ nuclei. Non-linear regression was used to calculate EC50 values.

For `CC[C@H](C)[C@H](NC(=O)CNC(=O)[C@H](CO)NC(=O)[C@@H](NC(=O)[C@H](Cc1c[nH]c2ccccc12)NC(=O)[C@H](Cc1c[nH]cn1)NC(=O)[C@H](CCC(=O)O)NC(=O)[C@H](Cc1ccccc1)NC(=O)[C@H](CCCNC(=N)N)NC(=O)[C@H](CC(C)C)NC(=O)[C@H](CC(C)C)NC(=O)[C@H](CCCNC(=N)N)NC(=O)[C@H](CCCCN)NC(=O)[C@H](CCCNC(=N)N)NC(=O)[C@H](CC(C)C)NC(=O)[C@H](CCCCN)NC(=O)[C@H](CCCNC(=N)N)NC(=O)[C@H](CC(C)C)NC(=O)[C@@H](N)Cc1c[nH]cn1)[C@@H](C)CC)C(=O)N[C@@H](Cc1ccc(O)cc1)C(=O)N[C@@H](CO)C(=O)N[C@@H](CCC(=O)O)C(=O)N[C@@H](CS)C(=O)N[C@@H](CCCCN)C(=O)N[C@@H](Cc1c[nH]cn1)C(=O)N[C@@H](CC(C)C)C(=O)N[C@H](C(=O)N[C@@H](CCC(N)=O)C(=O)N[C@@H](CCC(=O)O)C(=O)O)[C@@H](C)CC` [T-025] (H-HLRKLRKRLLRFEHWISGIYSECKHLIQE-OH; N-terminus and C-terminus assumed), the “GAG dependence of cholesterol import” value (ARPE-19 cells [1]) was “rely on GAG binding for cholesterol import activity”, the cholesterol import titration (HepG2 cells) was “concentration-dependent cholesterol import activity” and the “binding to oxidized lipids relative to DMPC” value [2] was “binding to at least one oxidized lipid that was equivalent or improved to binding against DMPC”. The cholesterol import titration (ARPE-19 cells [3]) was “concentration-dependent increase in cholesterol import” and the EC50 (ARPE-19 cells [4]) was 144 µM.
